According to US12582643B2, “Tasquinimod or a pharmaceutically acceptable salt thereof for use in combination therapy” (ACTIVE BIOTECH AB, priority 2020, dated 2026):

Tests used:
[1] = tested on: Human NCI-H929 (H929) multiple myeloma cells; assay: H929 human xenograft model, tasquinimod with bortezomib or dexamethasone (Example 1); format: in vivo; conditions: s.c. H929 in NSG mice; TQ 30 mg/kg drinking water; VEL 0.5 mg/kg i.v. every 4 days; compared to control mice; FIG. 1
Description: Human NCI-H929 (H929) multiple myeloma cells were inoculated subcutaneously in NSG mice. Tumour-bearing mice were treated with vehicle (VC), tasquinimod (TQ) 30 mg/kg ad lib in the drinking water starting when there were palpable tumors (i.e. day 18 after tumor inoculation); bortezomib (VEL), 0.5 mg/kg, i.v. every 4 days; dexamethasone (DEX), 10 mg/kg, i.p., 5 days on, 2 days off; or the combinations (TQ+DEX) and (TQ+VEL), and. Statistics: Two-way ANOVA; p-values VC vs TQ p=0.0009, VC vs VEL p=0.041, VC vs DEX p=0.0081, DEX vs DEX+TQ ns, TQ vs TQ+VEL p=0.0002, VEL vs VEL+TQ p=0.0361. The results are illustrated in FIG. 1.

MM1.S cells = assay: Human MM1.S xenograft model of multiple myeloma, tasquinimod with lenalidomide (Example 2); format: in vivo; conditions: s.c. MM1.S in NSG mice; TQ 30 mg/kg/day drinking water; LEN 5 mg/kg oral gavage; from day 14; compared to control mice; FIG. 2
Description: The effect of tasquinimod in combination with lenalidomide was studied in a human MM1.S model of multiple myeloma. The MM1.S cells were established from a patient with IgA myeloma with characteristics typical of human myeloma cells (Greenstein et al., Exp Hematol. 2003 April; 31(4):271-82). MM1.S model was established by subcutaneous inoculation of 5×10^6 MM1.S cells into NSG mice. Treatment with tasquinimod (TQ), 30 mg/kg/day in the drinking water; lenalidomide (LEN), 5 mg/kg via oral gavage, 5 consecutive days with 2 days breaks until the endpoint, or the combination of tasquinimod and lenalidomide (TQ+LEN), started when the tumors were measurable (day 14 after tumor cell injection). Tumor size was monitored using a caliper and tumor volume was calculated. Differences between groups were evaluated by using two-way ANOVA; p-values: TQ vs TQ+LEN p=0.0001, LEN vs LEN+TQ p=0.0183. The results are illustrated in FIG. 2.

Structure (SMILES)	multiple myeloma tumor growth (tumour area), result in words [1]	multiple myeloma growth (tumour volume), result in words (MM1.S cells)
CC(C)C[C@H](NC(=O)[C@H](Cc1ccccc1)NC(=O)c1cnccn1)B(O)O [bortezomib, [(1R)-3-methyl-1-[[(2S)-3-phenyl-2-(pyrazine-2-carbonylamino)propanoyl]amino]butyl]-boronic acid]	reduced the multiple myeloma tumor growth	
COc1cccc2c1c(O)c(C(=O)N(C)c1ccc(C(F)(F)F)cc1)c(=O)n2C [tasquinimod, 4-hydroxy-5-methoxy-N,1-dimethyl-2-oxo-N-[4-(trifluoromethyl)phenyl]-1,2-dihydroquinoline-3-carboxamide]	reduced the multiple myeloma tumor growth	reduced the multiple myeloma growth
Nc1cccc2c1CN(C1CCC(=O)NC1=O)C2=O (stereo not shown) [lenalidomide, 3-(4-amino-1-oxoisoindolin-2-yl)piperidine-2,6-dione]		reduced the multiple myeloma growth
